The text below walks through data of patent US20250376490A1, “C[…]-DERIVED PEPTIDE-NUCLEIC ACID HYBRID MOLECULE FOR TREATING INFECTION CAUSED BY MUTATED CORONAVIRUS” (priority 2022, published 2025).

The subject of one experiment is pseudotype SARS-COV-2. The format is cell-based.
The target in a further experiment is RBD-hACE2 binding (Severe acute respiratory syndrome coronavirus 2, UniProt P0DTC2). To be noted: 3 μM concentration.
For a further experiment, the target named is SARS-COV-2 RBD (Severe acute respiratory syndrome coronavirus 2, UniProt P0DTC2). To be noted: co-incubation with P05DHu and AM 122 antibodies.

Description for SARS-COV-2 RBD: Specifically, after thermal denaturation and rapid cooling, they were co-incubated with 5 nM RBD beads (final volume: 100 μL) with gentle rotation for 1 hour at room temperature. Beads were washed three times, and resuspended in 100 μL of 1× PBSMT for analysis with CytoFLEX S (Beckman Coulter). The competitive RBD-binding fraction was calculated as the ratio of the competitive mean fluorescence intensity to the uncompetitive (free-binding) mean fluorescence intensity.

LGKGDFR [LGKGDFR peptide]: the “infection rate with pseudotype SARS-COV-2 (percentage of GFP-expressing infected cells)” value in the experiment on pseudotype SARS-COV-2 stood at 12.6%. The “inhibition of RBD-hACE2 interaction” value with RBD-hACE2 binding was found to be 11.69%.

With R7-02 (LGKGDFRK), in the experiment with SARS-COV-2 RBD, the “RBD binding competition between R7-02 and antibodies” value is listed as “insignificant”. Further, in the experiment on pseudotype SARS-COV-2, the “infection rate with pseudotype SARS-COV-2 (percentage of GFP-expressing infected cells)” value is 1.9% and the “neutralizing efficiency compared to other RBD binders” value was “significantly higher or comparable”.
